Source: the NIST ThermoML archive (doi:10.1021/je700428f)

Experiment: xn = mol fraction of the nth substance listed
Conditions: 101 kPa, Liquid; for viscosity: Capillary tube (Ostwald / Ubbelohde) method

COC(C)(C)C [2-methoxy-2-methylpropane] + CCCCCCCCCC
Conditions | mass density [kg/m3] | viscosity [mPa·s]
308.15 K, x1 = 0.5005 | 719.62 | –
308.15 K, x1 = 0.6066 | 720.2 | –
308.15 K, x1 = 0.6866 | 720.81 | –
308.15 K, x1 = 0.7973 | 721.85 | –
308.15 K, x1 = 0.8999 | 723.26 | –
308.15 K, x1 = 1 | 724.82 | –
313.15 K, x1 = 0.1016 | – | 0.654
313.15 K, x1 = 0.1019 | 714.7 | –
313.15 K, x1 = 0.2002 | – | 0.614
313.15 K, x1 = 0.2041 | 714.74 | –
313.15 K, x1 = 0.3003 | – | 0.572
313.15 K, x1 = 0.3077 | 714.88 | –
313.15 K, x1 = 0.3999 | 715.03 | –
313.15 K, x1 = 0.4013 | – | 0.531
313.15 K, x1 = 0.4992 | – | 0.491
313.15 K, x1 = 0.5005 | 715.3 | –
313.15 K, x1 = 0.6005 | – | 0.449
313.15 K, x1 = 0.6066 | 715.7 | –
313.15 K, x1 = 0.6866 | 716.18 | –
313.15 K, x1 = 0.7 | – | 0.404
313.15 K, x1 = 0.7973 | 717 | –
313.15 K, x1 = 0.8005 | – | 0.362
313.15 K, x1 = 0.8999 | 718.16 | –
313.15 K, x1 = 1 | 719.42 | –
318.15 K, x1 = 0.1016 | – | 0.614
318.15 K, x1 = 0.1019 | 710.81 | –
318.15 K, x1 = 0.2002 | – | 0.579
318.15 K, x1 = 0.2041 | 710.74 | –
318.15 K, x1 = 0.3003 | – | 0.54
318.15 K, x1 = 0.3077 | 710.78 | –
318.15 K, x1 = 0.3999 | 710.82 | –
318.15 K, x1 = 0.4013 | – | 0.503
318.15 K, x1 = 0.4992 | – | 0.462
318.15 K, x1 = 0.5005 | 710.97 | –
318.15 K, x1 = 0.6005 | – | 0.426
318.15 K, x1 = 0.6066 | 711.2 | –
318.15 K, x1 = 0.6866 | 711.53 | –
318.15 K, x1 = 0.7 | – | 0.383
318.15 K, x1 = 0.7973 | 712.1 | –
318.15 K, x1 = 0.8999 | 713.01 | –
318.15 K, x1 = 1 | 713.96 | –
323.15 K, x1 = 0.1016 | – | 0.577
323.15 K, x1 = 0.1019 | 706.89 | –
323.15 K, x1 = 0.2002 | – | 0.546
323.15 K, x1 = 0.2041 | 706.73 | –
323.15 K, x1 = 0.3003 | – | 0.51
323.15 K, x1 = 0.3077 | 706.65 | –
323.15 K, x1 = 0.3999 | 706.59 | –
323.15 K, x1 = 0.4013 | – | 0.476
323.15 K, x1 = 0.4992 | – | 0.441
323.15 K, x1 = 0.5005 | 706.6 | –
323.15 K, x1 = 0.6005 | – | 0.406
323.15 K, x1 = 0.6066 | 706.67 | –
323.15 K, x1 = 0.6866 | 706.84 | –
323.15 K, x1 = 0.7 | – | 0.365
323.15 K, x1 = 0.7973 | 707.18 | –
323.15 K, x1 = 0.8999 | 707.81 | –
328.15 K, x1 = 0.1016 | – | 0.546
328.15 K, x1 = 0.1019 | 702.96 | –
328.15 K, x1 = 0.2002 | – | 0.517
328.15 K, x1 = 0.2041 | 702.7 | –
328.15 K, x1 = 0.3003 | – | 0.483
328.15 K, x1 = 0.3077 | 702.51 | –
328.15 K, x1 = 0.3999 | 702.33 | –
328.15 K, x1 = 0.4013 | – | 0.451
328.15 K, x1 = 0.4992 | – | 0.418
328.15 K, x1 = 0.5005 | 702.22 | –
328.15 K, x1 = 0.6005 | – | 0.386
328.15 K, x1 = 0.6066 | 702.11 | –
328.15 K, x1 = 0.6866 | 702.11 | –
328.15 K, x1 = 0.7 | – | 0.35
328.15 K, x1 = 0.7973 | 702.19 | –
